Here are results for 2 molecules from ChEMBL document CHEMBL5331134, “Identification of Brain-Penetrant ATP-Competitive mTOR Inhibitors for CNS Syndromes” (J Med Chem, 2023).

Each structure is given as a SMILES string. A value given as a limit tells only on which side of the number the result lay.

Data set [1] is described as follows: Cmax in Beagle dog at 1 mg/kg, po measured upto 24 hrs by LC/MS/MS analysis. The following applies: in vivo. Also on record: dose 1 mg/kg, time < 24 hrs, route po. The data set is classed as ADME, organism-based, Canis lupus familiaris.
Data set [2] is described as follows: Ratio of drug concentration in brain to plasma in Sprague-Dawley rat at 1 mg/kg, iv measured at 1 hr by HPLC-MS analysis. The following applies: brain and plasma, read-out: BPR. Type of data set: ADME, organism-based.
Data set [3] is described as follows: MRT(0 to t) in Beagle dog at 1 mg/kg, po and 0.3 mg/kg, iv measured upto 24 hrs by LC/MS/MS analysis. Type of data set: ADME, organism-based, Canis lupus familiaris. The conditions noted are these: in vivo.
Data set [4] is described as follows: AUC(0 to t) in Beagle dog at 0.3 mg/kg, iv measured upto 24 hrs by LC/MS/MS analysis. The following applies: in vivo. Also noted: time < 24 hrs, dose 0.3 mg/kg, route iv. Type of data set: ADME, organism-based, Canis lupus familiaris.
Data set [5] is described as follows: Phototoxicity against mouse BALB/3T3 clone A31 cells assessed as photo-irradiation factor incubated for 1 hr followed by irradiated with 5 J/cm^2 of light dose measured after 24 hrs by neutral red uptake assay. Type of data set: toxicity, cell-based. The conditions noted are these: balb/3t3 clone a31, 1 h.
Data set [6] can be described thus: Efflux ratio of apparent permeability across basolateral to apical side over apical to basolateral side in MDCK-MDR1 cells. Type of data set: ADME, cell-based, Canis lupus familiaris. The following applies: dog.
The nature of data set [7]: Drug concentration in C57BL/6 mouse brain at 10 mg/kg, po measured after 1 hr. The data set is classed as ADME, organism-based. The conditions noted are these: read-out: Ct.
Data set [8] can be described thus: Ratio of drug concentration in brain to plasma in C57BL/6 mouse at 30 mg/kg, po measured at 24 hrs. The data set is classed as ADME, organism-based. The following applies: brain and plasma, read-out: BPR.
Data set [9] has as its target Phosphatidylinositol 4,5-bisphosphate 3-kinase catalytic subunit alpha isoform (Homo sapiens, UniProt P42336). Put plainly: Inhibition of PI3Kalpha (unknown origin).
Data set [10] can be described thus: Tmax in cynomolgus monkey at 0.3 mg/kg, po measured upto 24 hrs by LC/MS/MS analysis. The data set is classed as ADME, organism-based, Macaca fascicularis. The conditions noted are these: in vivo.
Data set [11] in a line: Metabolic stability in human liver microsomes assessed as intrinsic clearance at 1 uM incubated for 30 mins in presence of NADPH by LC-MS/MS analysis. The data set is classed as ADME, Microsome. The following applies: read-out: CLH.
Data set [12] can be described thus: Plasma protein binding in Sprague-Dawley rat at 5 uM measured for 4 hrs by equilibrium dialysis method based LC/MS/MS analysis. The conditions noted are these: read-out: PPB (converted). Type of data set: ADME, cell-free. (In equilibrium dialysis free small molecules cross a membrane that holds back macromolecules.)
The nature of data set [13]: Plasma protein binding in C57BL/6 mouse plasma at 5 uM measured for 4 hrs by equilibrium dialysis method based LC/MS/MS analysis. The data set is classed as ADME, cell-free. The conditions noted are these: read-out: PPB (converted).
For data set [14], the target named is T1, Phosphatidylinositol 4,5-bisphosphate 3-kinase catalytic subunit delta isoform (Homo sapiens, UniProt O00329).
T1 sequence (O00329 whole entry): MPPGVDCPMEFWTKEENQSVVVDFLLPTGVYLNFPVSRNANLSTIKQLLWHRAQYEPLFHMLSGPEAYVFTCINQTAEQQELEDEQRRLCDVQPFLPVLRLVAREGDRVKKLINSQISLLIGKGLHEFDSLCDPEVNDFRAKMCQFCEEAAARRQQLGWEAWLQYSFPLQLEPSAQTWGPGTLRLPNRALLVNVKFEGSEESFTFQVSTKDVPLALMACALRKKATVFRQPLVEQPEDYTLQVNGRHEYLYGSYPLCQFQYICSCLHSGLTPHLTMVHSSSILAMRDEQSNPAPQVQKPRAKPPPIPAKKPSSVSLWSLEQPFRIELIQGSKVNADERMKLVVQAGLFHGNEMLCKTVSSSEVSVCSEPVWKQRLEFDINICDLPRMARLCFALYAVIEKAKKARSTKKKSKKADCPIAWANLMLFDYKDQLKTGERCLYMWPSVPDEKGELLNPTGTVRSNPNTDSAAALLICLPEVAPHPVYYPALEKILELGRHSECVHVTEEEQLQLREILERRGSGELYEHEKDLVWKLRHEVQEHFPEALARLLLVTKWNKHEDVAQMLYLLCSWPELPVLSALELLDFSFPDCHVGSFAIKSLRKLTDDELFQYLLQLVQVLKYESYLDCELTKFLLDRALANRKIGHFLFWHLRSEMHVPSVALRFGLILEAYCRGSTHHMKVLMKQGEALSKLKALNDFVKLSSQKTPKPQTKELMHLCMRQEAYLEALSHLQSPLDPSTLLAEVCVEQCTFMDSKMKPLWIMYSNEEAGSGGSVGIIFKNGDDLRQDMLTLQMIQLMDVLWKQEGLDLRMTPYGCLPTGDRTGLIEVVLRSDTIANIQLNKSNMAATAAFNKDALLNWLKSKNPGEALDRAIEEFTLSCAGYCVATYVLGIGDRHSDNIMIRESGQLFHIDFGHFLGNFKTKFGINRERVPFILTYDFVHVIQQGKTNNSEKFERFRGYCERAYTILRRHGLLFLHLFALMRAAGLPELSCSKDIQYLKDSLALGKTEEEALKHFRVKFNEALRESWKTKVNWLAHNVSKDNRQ
Put plainly: Inhibition of PI3Kdelta (unknown origin).

Data set [15] is described as follows: Drug concentration in C57BL/6 mouse plasma at 10 mg/kg, po measured after 1 hr. Type of data set: ADME, organism-based.
For data set [16], the target named is Serine/threonine-protein kinase ATR (Homo sapiens, UniProt Q13535). Put plainly: Inhibition of ATR (unknown origin)-driven CHK1 phosphorylation.
Sequence of Serine/threonine-protein kinase ATR (Q13535 whole entry): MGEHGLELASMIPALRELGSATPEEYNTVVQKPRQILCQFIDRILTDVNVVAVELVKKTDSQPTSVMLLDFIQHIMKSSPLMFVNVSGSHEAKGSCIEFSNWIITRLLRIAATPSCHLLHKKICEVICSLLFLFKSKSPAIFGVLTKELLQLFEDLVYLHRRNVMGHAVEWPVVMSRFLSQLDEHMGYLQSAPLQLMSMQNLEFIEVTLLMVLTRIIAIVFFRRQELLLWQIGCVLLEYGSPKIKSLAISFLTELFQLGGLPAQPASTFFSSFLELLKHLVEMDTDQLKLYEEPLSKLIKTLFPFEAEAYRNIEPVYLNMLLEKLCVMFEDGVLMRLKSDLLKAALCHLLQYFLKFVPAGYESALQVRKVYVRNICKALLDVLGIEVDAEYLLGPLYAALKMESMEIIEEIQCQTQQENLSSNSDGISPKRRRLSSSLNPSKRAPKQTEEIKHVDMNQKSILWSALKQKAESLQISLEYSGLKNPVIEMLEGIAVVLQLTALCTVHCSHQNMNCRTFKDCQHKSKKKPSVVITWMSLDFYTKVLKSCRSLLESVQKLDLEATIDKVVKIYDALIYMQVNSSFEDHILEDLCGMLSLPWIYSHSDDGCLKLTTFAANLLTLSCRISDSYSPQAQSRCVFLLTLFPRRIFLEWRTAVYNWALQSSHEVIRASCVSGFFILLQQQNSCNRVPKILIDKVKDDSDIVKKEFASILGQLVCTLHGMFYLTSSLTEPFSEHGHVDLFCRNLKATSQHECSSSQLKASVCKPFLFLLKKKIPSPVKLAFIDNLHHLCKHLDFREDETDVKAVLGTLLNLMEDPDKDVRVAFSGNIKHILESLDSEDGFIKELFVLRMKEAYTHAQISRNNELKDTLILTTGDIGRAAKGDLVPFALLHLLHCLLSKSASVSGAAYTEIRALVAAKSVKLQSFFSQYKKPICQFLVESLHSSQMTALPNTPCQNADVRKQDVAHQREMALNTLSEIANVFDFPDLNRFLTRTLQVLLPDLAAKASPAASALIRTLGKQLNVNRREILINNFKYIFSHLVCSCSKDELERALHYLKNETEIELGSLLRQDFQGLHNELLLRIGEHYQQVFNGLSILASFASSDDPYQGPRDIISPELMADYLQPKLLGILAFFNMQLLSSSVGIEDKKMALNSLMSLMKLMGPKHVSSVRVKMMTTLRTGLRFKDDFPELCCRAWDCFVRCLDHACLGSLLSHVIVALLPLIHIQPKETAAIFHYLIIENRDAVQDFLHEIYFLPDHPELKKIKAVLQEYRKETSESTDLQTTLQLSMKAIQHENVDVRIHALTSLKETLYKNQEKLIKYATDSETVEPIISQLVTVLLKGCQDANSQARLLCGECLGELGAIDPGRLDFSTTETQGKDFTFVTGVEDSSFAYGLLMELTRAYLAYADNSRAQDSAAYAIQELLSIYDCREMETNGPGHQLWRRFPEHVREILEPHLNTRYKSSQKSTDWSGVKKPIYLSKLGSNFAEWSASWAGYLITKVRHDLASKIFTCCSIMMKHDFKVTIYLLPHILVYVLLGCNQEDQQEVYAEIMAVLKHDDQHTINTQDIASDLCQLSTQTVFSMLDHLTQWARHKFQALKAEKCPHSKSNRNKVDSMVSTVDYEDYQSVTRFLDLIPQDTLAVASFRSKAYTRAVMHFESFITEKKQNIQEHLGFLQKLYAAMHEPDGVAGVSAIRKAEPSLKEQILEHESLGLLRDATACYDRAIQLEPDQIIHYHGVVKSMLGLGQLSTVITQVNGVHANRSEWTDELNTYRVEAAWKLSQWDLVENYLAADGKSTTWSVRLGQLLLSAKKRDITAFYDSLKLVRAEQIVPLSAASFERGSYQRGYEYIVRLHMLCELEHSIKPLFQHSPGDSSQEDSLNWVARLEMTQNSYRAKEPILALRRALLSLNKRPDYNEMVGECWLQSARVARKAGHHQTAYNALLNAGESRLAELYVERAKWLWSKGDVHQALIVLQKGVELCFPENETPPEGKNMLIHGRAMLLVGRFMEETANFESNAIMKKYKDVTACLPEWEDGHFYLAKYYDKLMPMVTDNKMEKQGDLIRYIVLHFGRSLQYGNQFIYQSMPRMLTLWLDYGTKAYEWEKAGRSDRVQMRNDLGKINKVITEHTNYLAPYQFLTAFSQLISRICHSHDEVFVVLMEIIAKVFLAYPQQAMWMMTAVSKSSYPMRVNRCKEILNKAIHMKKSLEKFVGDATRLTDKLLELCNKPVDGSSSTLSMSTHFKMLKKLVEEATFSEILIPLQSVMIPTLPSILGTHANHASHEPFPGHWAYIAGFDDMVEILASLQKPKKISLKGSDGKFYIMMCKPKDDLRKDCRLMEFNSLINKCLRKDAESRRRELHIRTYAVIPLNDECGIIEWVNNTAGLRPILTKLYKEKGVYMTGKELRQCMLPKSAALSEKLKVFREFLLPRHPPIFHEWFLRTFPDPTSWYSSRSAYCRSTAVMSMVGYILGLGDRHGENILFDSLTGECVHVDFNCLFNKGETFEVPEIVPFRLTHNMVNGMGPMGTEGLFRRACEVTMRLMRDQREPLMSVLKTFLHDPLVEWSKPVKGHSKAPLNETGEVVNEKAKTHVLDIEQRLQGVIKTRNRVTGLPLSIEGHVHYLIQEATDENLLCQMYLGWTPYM
Data set [17] can be described thus: Metabolic stability in cynomolgus monkey liver microsomes assessed as intrinsic clearance at 1 uM incubated for 30 mins in presence of NADPH by LC-MS/MS analysis. The data set is classed as ADME, Macaca fascicularis, Microsome. The following applies: read-out: CLH. (In general: Liver microsomes are vesicles of endoplasmic reticulum, rich in cytochrome P450 enzymes.)

Data set [18] can be described thus: Tmax in C57BL/6 mouse at 1 mg/kg, iv and 3 mg/kg, ip measured upto 24 hrs by HPLC-MS analysis. The conditions noted are these: in vivo. Type of data set: ADME, organism-based.
Data set [19] is described as follows: AUC(0 to t) in Sprague-Dawley rat at 1 mg/kg, iv measured upto 24 hrs by HPLC-MS analysis. The data set is classed as ADME, organism-based. Also noted: dose 1 mg/kg, time < 24 hrs, route iv. The conditions noted are these: in vivo.
Data set [20] in a line: Apparent permeability across basolateral to apical side in MDCK-MDR1 cells. The following applies: dog. Type of data set: ADME, cell-based, Canis lupus familiaris.
Data set [21] can be described thus: Genotoxicity in human TK6 cells assessed as micronuclei formation in absence of S9 fraction by micronucleus test. Type of data set: toxicity, cell-based.
The nature of data set [22]: Ratio of drug concentration in brain to plasma in C57BL/6 mouse at 1 mg/kg, po measured at 3 hrs. The data set is classed as ADME, organism-based. The conditions noted are these: read-out: BPR.
Data set [23] is described as follows: Drug concentration in C57BL/6 mouse plasma at 1 mg/kg, po measured after 1 hr. Type of data set: ADME, organism-based.
The nature of data set [24]: Drug concentration in C57BL/6 mouse plasma at 30 mg/kg, po measured after 8 hrs. The data set is classed as ADME, organism-based.
A short description of data set [25]: Drug concentration in C57BL/6 mouse plasma at 10 mg/kg, po measured after 8 hrs. The data set is classed as ADME, organism-based.
The nature of data set [26]: Drug concentration in C57BL/6 mouse brain at 10 mg/kg, po measured after 8 hrs. The following applies: read-out: Ct. The data set is classed as ADME, organism-based.
The nature of data set [27]: Ratio of drug concentration in brain to plasma in C57BL/6 mouse at 3 mg/kg, po measured at 1 hr. Type of data set: ADME, organism-based. The conditions noted are these: read-out: BPR.
A short description of data set [28]: Ratio of drug concentration in brain to plasma in C57BL/6 mouse at 1 mg/kg, po measured at 1 hr. The data set is classed as ADME, organism-based. The conditions noted are these: read-out: BPR.
The nature of data set [29]: MRT(0 to t) in cynomolgus monkey at 1 mg/kg, po and 0.1 mg/kg, iv measured upto 24 hrs by LC/MS/MS analysis. Type of data set: ADME, organism-based, Macaca fascicularis. The following applies: in vivo.
A short description of data set [30]: In vivo inhibition of phosphorylation of AKT at serine 473 residues in C57BL/6 mouse brain at 10 mg/kg, po measured after 8 hrs by Western blotting analysis. Type of data set: organism-based. On the technique in general: Immunoblotting shows a protein as a band on a membrane.
Data set [31] in a line: AUC(0 to t) in cynomolgus monkey at 1 mg/kg, po measured upto 24 hrs by LC/MS/MS analysis. Type of data set: ADME, organism-based, Macaca fascicularis. Also on record: time < 24 hrs, dose 1 mg/kg, route po. The following applies: in vivo.

Sequence of Phosphatidylinositol 4,5-bisphosphate 3-kinase catalytic subunit alpha isoform (P42336 whole entry, canonical isoform): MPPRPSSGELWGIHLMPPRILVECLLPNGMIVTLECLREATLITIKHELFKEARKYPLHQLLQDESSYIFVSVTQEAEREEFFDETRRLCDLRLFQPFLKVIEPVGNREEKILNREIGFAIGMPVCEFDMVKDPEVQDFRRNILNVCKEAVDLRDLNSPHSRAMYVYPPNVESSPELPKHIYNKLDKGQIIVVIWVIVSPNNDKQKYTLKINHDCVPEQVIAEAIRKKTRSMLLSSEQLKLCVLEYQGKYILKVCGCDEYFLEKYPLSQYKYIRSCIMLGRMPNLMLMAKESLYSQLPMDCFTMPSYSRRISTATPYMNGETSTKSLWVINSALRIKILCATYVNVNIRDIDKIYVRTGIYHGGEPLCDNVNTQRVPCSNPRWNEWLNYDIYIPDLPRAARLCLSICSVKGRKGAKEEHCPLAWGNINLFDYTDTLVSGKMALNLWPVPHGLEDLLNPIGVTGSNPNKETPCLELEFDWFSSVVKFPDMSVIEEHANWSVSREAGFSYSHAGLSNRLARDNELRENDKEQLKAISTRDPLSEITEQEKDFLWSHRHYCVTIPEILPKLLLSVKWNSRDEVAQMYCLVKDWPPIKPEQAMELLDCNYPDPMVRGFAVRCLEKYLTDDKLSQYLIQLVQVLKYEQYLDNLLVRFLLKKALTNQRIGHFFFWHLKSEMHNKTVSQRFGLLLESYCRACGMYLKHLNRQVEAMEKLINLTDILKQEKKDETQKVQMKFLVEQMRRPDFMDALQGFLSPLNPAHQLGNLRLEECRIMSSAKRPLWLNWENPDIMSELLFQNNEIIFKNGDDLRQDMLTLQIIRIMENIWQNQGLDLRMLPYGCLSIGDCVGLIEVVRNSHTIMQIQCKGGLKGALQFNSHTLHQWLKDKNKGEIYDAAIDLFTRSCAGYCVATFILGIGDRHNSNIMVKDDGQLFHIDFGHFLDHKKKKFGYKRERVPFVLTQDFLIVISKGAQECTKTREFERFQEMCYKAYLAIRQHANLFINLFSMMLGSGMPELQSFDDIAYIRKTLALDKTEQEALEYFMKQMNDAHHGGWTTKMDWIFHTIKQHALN

With `C[C@@H]1COCCN1c1cc(N2CCOC[C@@H]2C)nc2[nH]c(-c3ccccn3)nc12`, the Cmax – broadly, the maximum level reached in the sampled fluid or tissue – in [1] was determined as 34 nM. Moreover, the Kp at 1 h in data set [2] was 0.48. For the same molecule, in [3], the mean residence time (MRT last) (commonly a mean duration of stay, worked out from the concentration-time curve) at 24 h came to 0.9 h. In addition, the AUC(0-t) (usually the area under the concentration-time curve up to a stated or last time point) at 24 h was 0.147 µM·h in data set [4] and 8.09 µM·h in data set [19]. Moreover, the Activity is 1 in data set [5] and “Non-Toxic” in data set [21]. In addition, the efflux ratio – broadly, the permeability from basolateral to apical divided by that in the opposite direction, in the common usage – in [6] was found to be 0.48. Further, the concentration at 1 h came to 1490 nM in data set [7] and 2480 nM in data set [15]. Besides, the Kp at 24 h in data set [8] was 0.7. The results for the IC50 in data set [9], in data set [14] and in [16] were more than 10 µM, more than 10 µM and 17.2 µM, respectively. The figures for the Tmax in data set [10] and in [18] were 1.2 h and 0.4 h, respectively. Further, the figures for the microsomal CLint at 1 µM in data set [11] and in data set [17] were 22 µL/min/mg and 115 µL/min/mg, respectively. Further, the fraction unbound at 4 h, 5 µM in data set [12] is 0.134; in data set [13] it was 0.065. Besides, in [20], the basolateral-to-apical permeability (Papp B→A) – broadly, the apparent permeability from the basolateral to the apical side of a cell layer – amounted to 20.1 ×10⁻⁶ cm/s.

As for `C[C@@H]1COCCN1c1cc(N2CCOC[C@@H]2C)nc2[nH]c(-c3cscn3)nc12`, the Kp at 3 h in [22] was determined as 0.36. The values for the concentration at 1 h in data set [23], in data set [7] and in [15] were 766 nM, 4270 nM and 4420 nM, respectively. Besides, the values for the Kp at 1 h in data set [2], in data set [27] and in data set [28] were 0.35, 0.51 and 0.51, respectively. The concentration at 8 h in [24] is 632 nM; in data set [25] it was 406 nM; in data set [26], 230 nM. The same molecule displayed a mean residence time (MRT last) at 24 h in data set [29] of 4.2 h. The efflux ratio in [6] stood at 0.87. The Kp at 24 h in data set [8] worked out at 0.66. Also, the concentration for half-maximal inhibition (IC50) (in general, the point on the concentration scale where inhibition reaches its midpoint) was more than 10 µM in [9], more than 10 µM in [14] and 14.4 µM in [16]. Also, the microsomal CLint at 1 µM in data set [11] came to 3.4 µL/min/mg; in [17] it was 31 µL/min/mg. The fraction unbound at 4 h, 5 µM was 0.18 in data set [12] and 0.068 in [13]. In addition, the “inhibition (INH)” value in [30] is “Active”. Moreover, the AUC(0-t) at 24 h in data set [31] came to 3.75 µM·h; in [19] it was 2.39 µM·h. The Tmax (as a rule, the time from dosing to the highest level) in data set [18] was found to be 1.5 h. For the same molecule, the apparent permeability from basolateral to apical (Papp B→A) in data set [20] came out at 12 ×10⁻⁶ cm/s. Besides, in [21], the Activity entry is “Non-Toxic”.
